Where “and” joins values, the source holds several entries; their conditions need not be identical. Equal entries are not always repeated.
Legend:
hCB1 [1] = target: T1, hCB1 (Homo sapiens, UniProt P21554); assay: Lance Ultra cAMP accumulation assay, CHO cells; assay type: cell-based; parameters: expressed in transfected cells; details: for normalised cAMP response, concentration-response (Figure2f), replicate values: log[Compound;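 as to all read-outs here: human CB1R stably expressed in CHO cells, ligands co-incubated with forskolin at room temperature, read-out is lowering of forskolin-stimulated cAMP accumulation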
hCB1 [2] = target: T1, hCB1; assay: bioSensAll ebBRET signaling profiling, hCB1; assay type: cell-based; parameters: host or cells: HEK293SL cells, transient PEI transfection; details: for Gi1 hCB1 response: Gi1 biosensor; for Gi1 hCB1 / GoB hCB1: single replicate values, FigS6a

T1 sequence (P21554 whole entry): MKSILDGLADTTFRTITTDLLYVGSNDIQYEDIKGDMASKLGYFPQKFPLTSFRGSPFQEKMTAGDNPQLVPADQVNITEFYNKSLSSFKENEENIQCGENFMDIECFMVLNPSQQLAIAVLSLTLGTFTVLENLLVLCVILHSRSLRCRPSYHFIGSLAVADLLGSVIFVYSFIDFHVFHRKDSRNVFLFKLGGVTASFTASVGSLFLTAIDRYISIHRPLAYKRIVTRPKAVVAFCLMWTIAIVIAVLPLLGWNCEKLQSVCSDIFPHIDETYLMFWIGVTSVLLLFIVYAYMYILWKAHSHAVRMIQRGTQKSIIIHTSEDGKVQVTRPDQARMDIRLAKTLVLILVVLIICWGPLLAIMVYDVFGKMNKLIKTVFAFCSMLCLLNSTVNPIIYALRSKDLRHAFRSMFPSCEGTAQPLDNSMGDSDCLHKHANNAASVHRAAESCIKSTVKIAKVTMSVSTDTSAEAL

COC(=O)C(NC(=O)c1cc(C)n(-c2cccc(C(F)(F)F)c2)n1)c1cccs1 (centres unmarked) [‘60154]
EC50 (hCB1 [1]): 351 nM | Lance Ultra cAMP pEC50 (hCB1 [1]): 6.5 [7.0] | Emax (hCB1 [1]; CHO): 67% | normalised cAMP response, concentration-response (Figure2f), replicate values (hCB1 [1]; M] -5): 47.6767 and 42.0056 and 42.3397 | normalised cAMP response, concentration-response (Figure2f), replicate values (hCB1 [1]; M] -6): 18.5649 and 64.1261 and 62.9313 and 54.4312 | normalised cAMP response, concentration-response (Figure2f), replicate values (hCB1 [1]; M] -7): 60.7575 and 85.7016 and 74.1727 and 91.7418 | normalised cAMP response, concentration-response (Figure2f), replicate values (hCB1 [1]; M] -8): 71.1204 and 91.8821 and 99.3075 and 104.869 | normalised cAMP response, concentration-response (Figure2f), replicate values (hCB1 [1]; M] -9): 80.377 and 105.423 and 95.8256 and 102.017 | normalised cAMP response, concentration-response (Figure2f), replicate values (hCB1 [1]; M] -10): 87.3077 and 96.5214 and 96.3615 and 92.9435 | normalised cAMP response, concentration-response (Figure2f), replicate values (hCB1 [1]; M] -11): 91.1852 and 100.567 and 97.003 and 102.336 | normalised cAMP response, concentration-response (Figure2f), replicate values (hCB1 [1]; M] -12): 91.9633 and 106.344 and 93.1819 and 97.7717 | Gi1 hCB1 response (hCB1 [2]; Log [Compound] (M) -4.22186): 135.687 | Gi1 hCB1 response (hCB1 [2]; Log [Compound] (M) -4.63927): 128.615 | Gi1 hCB1 response (hCB1 [2]; Log [Compound] (M) -5.05788): 93.8563 | Gi1 hCB1 response (hCB1 [2]; Log [Compound] (M) -5.47381): 94.0353 | Gi1 hCB1 response (hCB1 [2]; Log [Compound] (M) -5.89285): 102.272 | Gi1 hCB1 response (hCB1 [2]; Log [Compound] (M) -6.31878): 90.7452 | Gi1 hCB1 response (hCB1 [2]; Log [Compound] (M) -6.72585): 85.0156 | Gi1 hCB1 response (hCB1 [2]; Log [Compound] (M) -7.14267): 90.8795 | Gi1 hCB1 response (hCB1 [2]; Log [Compound] (M) -7.55284): 57.4417 | Gi1 hCB1 response (hCB1 [2]; Log [Compound] (M) -8): 57.3074 | Gi1 hCB1 response (hCB1 [2]; Log [Compound] (M) -8.22186): 41.0808 | Gi1 hCB1 response (hCB1 [2]; Log [Compound] (M) -8.39794): 29.6663 | Gi1 hCB1 response (hCB1 [2]; Log [Compound] (M) -8.68787): 9.254 | Gi1 hCB1 response (hCB1 [2]; Log [Compound] (M) -9.15521): -1.31 | Gi1 hCB1 response (hCB1 [2]; Log [Compound] (M) -9.61989): -12.1646 | Gi1 hCB1 response (hCB1 [2]; Log [Compound] (M) -10.0969): 3.838 | Gi1 hCB1 response (hCB1 [2]; Log [Compound] (M) -10.5529): 8.852 | Gi1 hCB1 response (hCB1 [2]; Log [Compound] (M) -11.0177): -14.1566 | Gi1 hCB1 response (hCB1 [2]; Log [Compound] (M) -11.4949): -8.897 | Gi1 hCB1 response (hCB1 [2]; Log [Compound] (M) -11.9208): 6.613 | Gi1 hCB1 response (hCB1 [2]; Log [Compound] (M) -12.3979): -8.651 | Gi1 hCB1 response (hCB1 [2]; Log [Compound] (M) -12.8861): -7.89 | Gi1 hCB1 response (hCB1 [2]; Log [Compound] (M) -13, individual replicate values): -1.847 and -6.9945 | Gi1 hCB1 (hCB1 [2]; Log [Compound] (M) -4.22186): 97.0901 | GoB hCB1 (hCB1 [2]; Log [Compound] (M) -4.22186): 92.7297 | Gi1 hCB1 (hCB1 [2]; Log [Compound] (M) -4.63927): 95.1785 | GoB hCB1 (hCB1 [2]; Log [Compound] (M) -4.63927): 96.2724 | Gi1 hCB1 (hCB1 [2]; Log [Compound] (M) -5.05788): 93.4672 | GoB hCB1 (hCB1 [2]; Log [Compound] (M) -5.05788): 98.1786 | Gi1 hCB1 (hCB1 [2]; Log [Compound] (M) -5.47381): 90.2143 | GoB hCB1 (hCB1 [2]; Log [Compound] (M) -5.47381): 107.08 | Gi1 hCB1 (hCB1 [2]; Log [Compound] (M) -5.89285): 87.9019 | GoB hCB1 (hCB1 [2]; Log [Compound] (M) -5.89285): 95.1574 | Gi1 hCB1 (hCB1 [2]; Log [Compound] (M) -6.31878): 75.1986 | GoB hCB1 (hCB1 [2]; Log [Compound] (M) -6.31878): 99.5993 | Gi1 hCB1 (hCB1 [2]; Log [Compound] (M) -6.72585): 72.9632 | GoB hCB1 (hCB1 [2]; Log [Compound] (M) -6.72585): 94.8877 | Gi1 hCB1 (hCB1 [2]; Log [Compound] (M) -7.14267): 69.0474 | GoB hCB1 (hCB1 [2]; Log [Compound] (M) -7.14267): 78.6487 | Gi1 hCB1 (hCB1 [2]; Log [Compound] (M) -7.55284): 54.4325 | GoB hCB1 (hCB1 [2]; Log [Compound] (M) -7.55284): 63.3449 | Gi1 hCB1 (hCB1 [2]; Log [Compound] (M) -8): 27.0835 | GoB hCB1 (hCB1 [2]; Log [Compound] (M) -8): 30.6512 | Gi1 hCB1 (hCB1 [2]; Log [Compound] (M) -8.22186): 23.9076 | GoB hCB1 (hCB1 [2]; Log [Compound] (M) -8.22186): 16.822 | Gi1 hCB1 (hCB1 [2]; Log [Compound] (M) -8.39794): 14.1027 | GoB hCB1 (hCB1 [2]; Log [Compound] (M) -8.39794): 15.743 | Gi1 hCB1 (hCB1 [2]; Log [Compound] (M) -8.68787): 6.5794 | GoB hCB1 (hCB1 [2]; Log [Compound] (M) -8.68787): 4.5753 | Gi1 hCB1 (hCB1 [2]; Log [Compound] (M) -9.15521): 2.17 | GoB hCB1 (hCB1 [2]; Log [Compound] (M) -9.15521): -0.7658

— publication PMC11882969 (Nature Communications, 2025)
